Source: PMC6373673, “Purified PEGylated human glucagon-like peptide-2 reduces the severity of irradiation-induced acute radiation enteritis in rats” (Journal of Radiation Research, 2018)

How the values were obtained:
TNF-α = assay: Intestinal TNF-α by sandwich ELISA after X-ray irradiation; assay type: in vivo, Sprague Dawley (SD) rats; conditions: SD rats, 8 Gy abdominal X-ray, small intestine homogenate 48 h after, mean ± S.D., n = 10
Description: (§1) Sixty adult male Sprague Dawley (SD) rats weighing 220–250 g were included in our study. Rats were subjected to 1 week of preliminary conditioning, during which time they received standard pellet rat chow and water ad libitum. They were housed in a temperature-and humidity-controlled environment, two animals per cage, with a 12-h light/12-h dark cycle. The Principles of Laboratory Animal Care (NIH Publication 85e23, revised 1996) were followed. Animal study protocols were approved by the Ethics Committee of the Fourth Military Medical University. The experiment was carried out at the Department of Pharmacy, Tangdu Hospital, Fourth Military Medical University.
(§2) X-ray irradiation was performed using a linear accelerator (Siemens primask) adjusted to provide X-ray irradiation, and carried out at the Department of Radiology and Oncology at the Tangdu Hospital. All of the animals were anesthetized with an intramuscular injection of pentobarbital sodium (100 mg/kg) and subjected to a single dose of 8 Gy abdominal X-radiation. The dose was delivered at a rate of 400 monitor units/min (1100 rad, 116.5 cGy/min, 100 cm source–skin distance) using a conventional radiation source, while the other parts of the body were carefully shielded.
Rats were randomized into six groups (Groups A–F). […] The remaining rats were subjected to a single dose of 8 Gy of abdominopelvic X-radiation and randomized further into five groups (Groups B–F). […] Briefly, rats were anesthetized with 100 mg/kg pentobarbital sodium, positioned supine, and subjected to a single fraction of 8 Gy delivered at a specific depth through abdominopelvic fields using X-rays at the rate of 0.74 Gy/min, while the other parts of the body were carefully shielded. […]
Malondialdehyde (MDA) levels, glutathione (GSH) content, and the activities of super oxide-dismutase (SOD) and glutathione peroxidase (GPx) were determined in the small intestine using commercial assay kits (Biyuntian Co., China) according to the manufacturer’s protocols. The protein content ratio was determined by Pierce™ BCA Protein Assay Kit (Thermo Fisher Scientific Inc., Rockford, IL, USA). […] Total protein concentrations of tissue homogenates were detected by a Pierce™ BCA Protein Assay Kit (Thermo Scientific; Rockford, IL, USA). The levels of tumor necrosis factor-alpha (TNF-α) (Invitrogen; Carlsbad, CA, USA) and interleukin-2 (IL-2) (Bioo Scientific; Austin, TX, USA) in the tissue samples were determined using commercially available sandwich ELISA kits, according to the protocol recommended by the manufacturer. Results were recorded as the ratio of detected protein (TNF-α, IL-2) (pg/ml) to the amount of total protein (mg/ml).

[1] = system: irradiation-induced acute radiation enteritis in rats; assay: Clinical, gross, histological and morphometric changes of the small intestine in irradiation-induced acute radiation enteritis; assay type: in vivo, Sprague Dawley (SD) rats; design: key to Shortening of villi (histologic) / Architectural disarray (histologic) / Diarrhea / Abdominal distention / Intestinal dilatation (gross) / Mucosal ulceration (gross) / Edema (gross): (–) = absent; (+) = present; conditions: SD rats, 8 Gy abdominal X-ray; for Crypt height / Height of villi: jejunum 48 h after, five microscopic fields per animal, ×100, mean ± SD; for Abdominal distention / Architectural disarray (histologic) / Diarrhea / Edema (gross) / Intestinal dilatation (gross) / Mucosal ulceration (gross) / Shortening of villi (histologic): killed 48 h after
Description: as §1, §2
Rats were randomized into six groups (Groups A–F). […] The remaining rats were subjected to a single dose of 8 Gy of abdominopelvic X-radiation and randomized further into five groups (Groups B–F). […] Briefly, rats were anesthetized with 100 mg/kg pentobarbital sodium, positioned supine, and subjected to a single fraction of 8 Gy delivered at a specific depth through abdominopelvic fields using X-rays at the rate of 0.74 Gy/min, while the other parts of the body were carefully shielded. Radiated rats were allowed to recover from the anesthetic and GLP-2 or Mono-PEG-hGLP-2 was administered by intraperitoneal injection. • Group A: non-X-ray irradiated (control). • Group B: X-ray irradiated. • Group C: pretreated with 3 μg of Mono-PEG-hGLP-2 in 0.3 ml of saline 5 min before X-ray irradiation. • Group D: pretreated with 10 μg of Mono-PEG-hGLP-2 in 0.3 ml of saline 5 min before X-ray irradiation. • Group E: pretreated with 30 μg of Mono-PEG-hGLP-2 in 0.3 ml of saline 5 min before X-ray irradiation. • Group F: pretreated with 30 μg of GLP-2 in 0.3 ml of saline 5 min before X-ray irradiation.
Animals were killed 48 h after X-ray irradiation, and laparotomies were performed. Immediately after the laparotomy, the small intestine (jejunum) was examined and removed. Two-centimeter segments of the jejunum and segments of the intestine showing edema and change in color (purple) were resected. Luminal contents were washed with 0.9% NaCl by injecting saline through the lumen of the small bowel segments. Tissue samples were pinned out on a paraffin block and floated upside down in 10% buffered formalin overnight, dehydrated, and embedded in paraffin. Sections of 4 μm were cut with a Leica sliding microtome (SM 2000R, Nussbach, Germany) and slides, containing a minimum of 10 sections, were stained with hematoxylin and erosin stains. Some representative intestine sections were processed for ultrastructural studies. Sections were evaluated quantitatively and qualitatively in a blinded fashion.
For histological assessment, villous height (from the base to the tip of the villi), crypt height (from the base to the tip of each crypt), and the number of villi per square millimeter was determined based on individual intestinal segments at five separate microscopic fields for each animal. They were recorded as the mean values using ocular micrometer-adapted light microscopy at a magnification of ×100.

[2] = 3 μg i.p. 5 min before irradiation
[3] = 10 μg i.p. 5 min before irradiation
[4] = 30 μg i.p. 5 min before irradiation
[5] = 3 μg i.p. in 0.3 ml saline 5 min before irradiation
[6] = 10 μg i.p. in 0.3 ml saline 5 min before irradiation
[7] = 30 μg i.p. in 0.3 ml saline 5 min before irradiation

With “Mono-PEG-hGLP-2: human GLP-2 peptide conjugated to one 5 kDa mPEG chain by reaction with mPEG5k-SPA” the “Intestinal content of TNF-α” value (TNF-α; [2]) was 7.68 ± 0.77 pg/mg prot, the “Intestinal content of TNF-α” value (TNF-α; [3]) was 6.12 ± 1.01 pg/mg prot and the “Intestinal content of TNF-α” value (TNF-α; [4]) was 4.78 ± 0.67 pg/mg prot. The Crypt height [1, 2] was 121.6 ± 6.3 μm, the Height of villi [1, 2] was 268.1 ± 11.6 μm and the Abdominal distention [1, 5] was “+”. For the same substance, the “Architectural disarray (histologic)” value [1, 5] was “+”, the Diarrhea [1, 5] was “–” and the “Edema (gross)” value [1, 5] was “+”. The “Intestinal dilatation (gross)” value [1, 5] was “+”, the “Mucosal ulceration (gross)” value [1, 5] was “+” and the “Shortening of villi (histologic)” value [1, 5] was “+”. For the same substance, the Height of villi [1, 3] was 437.1 ± 19.4 μm, the Abdominal distention [1, 6] was “–” and the “Architectural disarray (histologic)” value [1, 6] was “–”. For the same substance, the Diarrhea [1, 6] was “–”, the “Edema (gross)” value [1, 6] was “+” and the “Intestinal dilatation (gross)” value [1, 6] was “–”. For the same substance, the “Mucosal ulceration (gross)” value [1, 6] was “–”, the “Shortening of villi (histologic)” value [1, 6] was “+” and the Crypt height [1, 4] was 188.5 ± 8.3 μm. The Height of villi [1, 4] was 507.9 ± 21.1 μm, the Abdominal distention [1, 7] was “–” and the “Architectural disarray (histologic)” value [1, 7] was “–”. The Diarrhea [1, 7] was “–”, the “Edema (gross)” value [1, 7] was “–” and the “Intestinal dilatation (gross)” value [1, 7] was “–”. The “Mucosal ulceration (gross)” value [1, 7] was “–”, the “Shortening of villi (histologic)” value [1, 7] was “–” and the “Protection against radiation-induced intestinal injury (villi integrity, histology)” value ([1]; i.p. pretreatment 5 min before irradiation, result in words) was “markedly protected the integrity of the villi and preserved the villous height”.
